Assay results taken from patent US20070087975A1, “Compound useful for the prevention and treatment of left ventricular hypertrophy in dialysed patients” (SIGMA-TAU INDUSTRIE FARMACEUTICHE RIUNITE SPA, priority 2005, published 2007).

How the values were obtained:
[1] = tested on: left ventricular (LV) function; conditions: 58 patients with primary glomerulonephritis and moderate chronic renal failure; cited from earlier work
[2] = tested on: decompensated eccentric hypertrophy produced by myocardial infarction; conditions: rats without renal damages; similar to ACE inhibition; cited from earlier work
[3] = tested on: left ventricular hypertrophy (LVH) in ESRD dialysed patients; test: Clinical trial of propionyl L-carnitine in ESRD patients on dialysis (multicentre, randomized, double-blind, placebo-controlled, echocardiography); type: in vivo, human; conditions: 26 weeks
Experimental: A clinical trial (multicentre, parallel, randomized, double-blind, dose- ranging placebo-controlled study in 300 patients) useful for evaluating both preventive and/or curative effect of the treatment with propionyl L-carnitine (3 and 6 mg/kg given intravenously three times a week at the end of the hemodyalisis session for 26 weeks) has been done.
1) male or female out-patients aged >18 years, suffering from ESRD on bicarbonate dialysis three times a week;
2) patients who have reached a certain degree of dialytic stability (at least since six months on dialysis), so that the variability due to the progressive patient adaptation of the therapeutic treatment is controlled, presenting no clinical signs of hydric overload at the end of dialysis;
3) patients showing a degree of cardiac deterioration defined as inter-ventricular septum and left ventricular wall thickness ≧11 mm;
4) patients with left ventricular ejection fraction >40%;
During the whole Randomised Treatment Period, all drugs considered indispensable for the treatment of the disease under study could be administrated providing that they were administered for at least three months prior to patient's enrollment, and that the dosage of those drugs remained stable throughout the whole treatment period. […]

In the case of C[C@H](CS)C(=O)N1CCC[C@H]1C(=O)O [captopril], the “LV ejection fraction, early and late transmitral flow velocities and early to late LV inflow velocities ratio” value [1] is given as “not significantly affected”.

In the case of CCOC(=O)[C@H](CCc1ccccc1)N[C@@H](C)C(=O)N1CCC[C@H]1C(=O)O [enalapril], the “LV ejection fraction, early and late transmitral flow velocities and early to late LV inflow velocities ratio” value [1] is listed as “not significantly affected”.

In the case of CCC(=O)O[C@H](CC(=O)[O-])C[N+](C)(C)C [propionyl L-carnitine], the “magnitude of decompensated eccentric hypertrophy produced by myocardial infarction” value [2] is listed as “reduces the magnitude of decompensated eccentric hypertrophy”, the “effect on the signs of LVH, signs (a)-(c): septum and posterior wall thickness, end-systolic and end-diastolic LV size and volume, LV ejection fraction” value ([3]; 3 and 6 mg/kg i.v. three times a week at end of hemodialysis session, preliminary ANOVA analysis) is listed as “useful for treating the signs of LVH” and the “progression of the signs of LVH, points (a)-(c), in the treated group respect to its base line” value ([3]; T26 vs T0, 3 and 6 mg/kg i.v. three times a week, control group signs worsened) is listed as “able to reduce the progression of the signs of LVH”.
